# Article PMC8400968, “Design, Synthesis, Biological Evaluation, and Computational Studies of Novel Tri-Aryl Imidazole-Benzene Sulfonamide Hybrids as Promising Selective Carbonic Anhydrase IX and XII Inhibitors” (Molecules, 2021)
# Several values for one entry are separate records, joined by “and”; a condition that tells them apart may be missing. Equal values may be shown once. Read-outs that look alike come from different tables or passages of the source.
# How the values were obtained:
# [1] = molecular target: T1, hCA XII (Homo sapiens, UniProt O43570); assay: stopped-flow CO2 hydrase assay, hCA XII; type: biochemical
# T1 construct: made in house
# Description: Newly synthesized hybrids 5a–n were tested for their inhibitory activity against four physiologically and pharmacologically CA isoforms, namely cytosolic hCA I and II, and tumor-associated isoforms hCA IX and XII, using a CO2 hydrase stop-flow assay. Acetazolamide (AAZ), clinically used sulphonamide, was used as the standard drug. […]. The ortho substitution in the aryl moiety appears to correlate with higher inhibitory effects against both hCA IX and XII. […] […]. The ability of imidazoles 5a–n toward inhibition of hCA I, II (cytosolic) as well as hCA IX and XII (transmembrane, tumor-associated isoforms) using stopped-flow CO2 hydrase assay was evaluated. See Appendix A.
# The carbonic anhydrase catalyzed CO2 hydration actions for all new compounds herein reported have were assayed utilizing an instrument of Applied Photophysics stopped-flow. The enzymes are recombinant proteins prepared in our lab. […]. The uncatalyzed rates were determined in the same manner and subtracted from the total observed rates. Stock solutions of inhibitor (0.1 mM) were prepared in distilled-deionized water and dilutions up to 0.01 nM were done thereafter with the assay buffer. Inhibitor and enzyme solutions were preincubated together for 15 min at room temperature prior to assay, in order to allow for the formation of the E-I complex. The inhibition constants were obtained by non-linear least-squares methods using PRISM 3 and the Cheng-Prusoff equation, and represent the mean from at least three different determinations.
# [2] = molecular target: T2, hCA IX (Homo sapiens, UniProt Q16790); assay: stopped-flow CO2 hydrase assay, hCA IX; type: biochemical; conditions: for IC50: quoted in docking discussion, read-out: IC50 CA-IX (in vitro inhibitory activity quoted in docking study); for Selectivity Ratio hCA XII/ hCA IX: selectivity for hCA IX over hCA XII; for Ki: stopped-flow CO2 hydrase assay
# T2 construct: made in house
# Description: (§1) Newly synthesized hybrids 5a–n were tested for their inhibitory activity against four physiologically and pharmacologically CA isoforms, namely cytosolic hCA I and II, and tumor-associated isoforms hCA IX and XII, using a CO2 hydrase stop-flow assay. Acetazolamide (AAZ), clinically used sulphonamide, was used as the standard drug. […] The ability of imidazoles 5a–n toward inhibition of hCA I, II (cytosolic) as well as hCA IX and XII (transmembrane, tumor-associated isoforms) using stopped-flow CO2 hydrase assay was evaluated. See Appendix A.
# (§2) The enzymes are recombinant proteins prepared in our lab. […] The uncatalyzed rates were determined in the same manner and subtracted from the total observed rates. Stock solutions of inhibitor (0.1 mM) were prepared in distilled-deionized water and dilutions up to 0.01 nM were done thereafter with the assay buffer. Inhibitor and enzyme solutions were preincubated together for 15 min at room temperature prior to assay, in order to allow for the formation of the E-I complex. The inhibition constants were obtained by non-linear least-squares methods using PRISM 3 and the Cheng-Prusoff equation, and represent the mean from at least three different determinations.
# [3] = system: breast cancer cell line (MCF-7); assay: Antiproliferative activity, MTT assay, MCF-7; type: cell-based; conditions: Homo sapiens, MCF7; MCF-7, MTT; read-out: Antiproliferative Activity IC50 ± SEM MCF-7
# Description: (§3) The antiproliferative activity of 5b, 5d, 5e, 5g, 5j and 5n against four human cancer cell lines including pancreatic cancer cell line (Panc-1), breast cancer cell line (MCF-7), colon cancer cell line (HT-29) and epithelial cancer cell line (A-549) using MTT assay and doxorubicin was applied as the reference compound [22, 23]. Graph Pad Prism software (Graph Pad Software, San Diego, CA, USA) was used to calculate the median inhibition concentration (IC50) and results are recorded in Table 2.
# (§4) The antiproliferative activity of 5b, 5d, 5e, 5g, 5j and 5n against four human cancer cell lines including pancreatic cancer cell line (Panc-1), breast cancer cell line (MCF-7), colon cancer cell line (HT-29) and epithelial cancer cell line (A-549) using MTT assay and doxorubicin was applied as the reference compound [22, 23]. See Appendix A.
# (§5) To explore the antiproliferative potential of compounds MTT assay was performed according to previously reported procedure using different cell lines To explore the antiproliferative potential of compounds propidium iodide fluorescence assay was performed using different cell lines. To calculate the total nuclear DNA, a fluorescent dye (propidium iodide, PI) is used which can attach to the DNA, thus offering a quick and precise technique. PI cannot pass through the cell membrane and its signal intensity can be considered as directly proportional to quantity of cellular DNA. Cells whose cell membranes are damaged or have changed permeability are counted as dead ones. The assay was performed by seeding the cells of different cell lines at a density of 3000–7500 cells/well (in 200 µL medium) in culture plates followed by incubation for 24 h at 37 °C in humidified 5% CO2/95% air atmospheric conditions. The medium was removed; the compounds were added to the plates at 10 µM concentrations (in 0.1% DMSO) in triplicates, followed by incubation for 48 h. DMSO (0.1%) was used as control. After incubation, medium was removed followed by the addition of PI (25 µL, 50µg/mL in water/medium) to each well of the plates. At −80 °C, the plates were allowed to freeze for 24 h, followed by thawing at 25 °C. A fluorometer (Polar-Star BMG Tech, Offenburg, Germany) was used to record the readings at excitation and emission wavelengths of 530 and 620 nm for each well. The percentage cytotoxicity of compounds was calculated using the following formula: %Cytotoxicity=(Ac−Atc)/Ac×100 where Atc = Absorbance of treated cells and Ac = Absorbance of control. Erlotinib was used as positive control in the assay.
# [4] = system: four human cancer cell lines (Panc-1, MCF-7, HT-29, A-549); assay: Antiproliferative activity, MTT assay, average of the four cell lines; type: cell-based; conditions: for IC50: average of A-549, MCF-7, Panc-1, HT-29
# Description: as §3, §4, §5
# [5] = molecular target: T3, hCA II (Homo sapiens, UniProt P00918); assay: stopped-flow CO2 hydrase assay, hCA II; type: biochemical
# T3 construct: made in house
# Description: as §1, §2
# [6] = molecular target: T4, hCA I (Homo sapiens, UniProt P00915); assay: stopped-flow CO2 hydrase assay, hCA I; type: biochemical
# T4 construct: made in house
# Description: as §1, §2
# [7] = system: pancreatic cancer cell line (Panc-1); assay: Antiproliferative activity, MTT assay, Panc-1; type: cell-based; conditions: Homo sapiens; Panc-1, MTT; read-out: Antiproliferative Activity IC50 ± SEM Panc-1
# Description: as §3, §4, §5
# [8] = system: colon cancer cell line (HT-29); assay: Antiproliferative activity, MTT assay, HT-29; type: cell-based; conditions: Homo sapiens; HT-29, MTT; read-out: Antiproliferative Activity IC50 ± SEM HT-29
# Description: as §3, §4, §5
# [9] = system: epithelial cancer cell line (A-549); assay: Antiproliferative activity, MTT assay, A-549; type: cell-based; conditions: Homo sapiens, A549; A-549, MTT; read-out: Antiproliferative Activity IC50 ± SEM A-549
# Description: as §3, §4, §5
# [10] = Cell viability assay (MTT); type: cell-based; conditions: human, MCF-10A mammary gland epithelial cells, MCF-10A cells, incubated 4 days
# Description: Cell viability assay was carried out using human mammary gland epithelial cell line (MCF-10A). MCF-10A cells were incubated with compounds 5b, 5d, 5e, 5g, 5j and 5n for 4 days and MTT assay was used to determine the viability of cells. See Appendix A.
# MTT assay was carried out to study the effect of compounds on mammary epithelial cells (MCF-10A). The medium in which cells were propagated contained Dulbecco’s modified Eagle’s medium (DMEM)/Ham’s F-12 medium (1:1) supplemented with epidermal growth factor (20 ng/mL), hydrocortisone (500 ng/mL), insulin (10 μg/mL), 2 mM glutamine and 10% fetal calf serum. After every 2–3 days, the cells were passaged using trypsin ethylenediamine tetra acetic acid (EDTA). The cells were seeded at a density of 10^4 cells mL^−1 in flat-bottomed culture plates containing 96 wells each. After 24 h, medium was removed from the plates and the compounds in (in 0.1% DMSO) were added (in 200 μL medium to yield a final concentration of 0.1% v/v) to the wells of plates. A single compound was designated with four wells followed by incubation of plates for 96 h at 37 °C. After incubation, medium was removed completely from the plates followed by addition of MTT (0.4 mg/mL in medium) to each well and subsequent incubation of plates for 3 h. MTT (along with the medium) was removed and DMSO (150 μL) was added to each well of the culture plates, followed by vortexing and subsequent measurement of absorbance (at 540 nm) using microplate reader. The data are shown as percentage inhibition of proliferation in comparison with controls containing 0.1% DMSO.
# [11] = four cancer cell lines, read-out: GI50
# [12] = stopped-flow CO2 hydrase assay, read-out: Ki hCA I
# T4 sequence (P00915 whole entry): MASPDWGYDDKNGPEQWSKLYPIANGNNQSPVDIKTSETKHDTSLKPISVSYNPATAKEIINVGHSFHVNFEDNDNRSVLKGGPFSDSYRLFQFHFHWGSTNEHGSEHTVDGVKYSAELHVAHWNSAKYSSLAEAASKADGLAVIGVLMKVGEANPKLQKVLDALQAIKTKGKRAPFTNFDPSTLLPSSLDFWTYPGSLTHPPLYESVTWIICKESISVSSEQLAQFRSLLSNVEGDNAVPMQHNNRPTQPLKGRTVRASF
# T1 sequence (O43570 25-354): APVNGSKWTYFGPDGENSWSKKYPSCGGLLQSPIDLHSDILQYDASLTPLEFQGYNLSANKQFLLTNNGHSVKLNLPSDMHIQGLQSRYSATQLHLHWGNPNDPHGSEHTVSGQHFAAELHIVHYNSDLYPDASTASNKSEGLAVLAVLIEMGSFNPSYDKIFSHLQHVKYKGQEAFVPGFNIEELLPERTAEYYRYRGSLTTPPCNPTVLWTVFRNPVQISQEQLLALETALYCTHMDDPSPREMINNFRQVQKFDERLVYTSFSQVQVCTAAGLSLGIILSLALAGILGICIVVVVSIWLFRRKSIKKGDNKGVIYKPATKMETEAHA
smiles,measurement,setting,value
"NS(=O)(=O)c1ccc(-n2c(-c3c(Cl)cccc3Cl)nc(-c3ccccc3)c2-c2ccccc2)cc1 [Compound 5d, 4-(2-(2,6-Dichlorophenyl)-4,5-diphenyl-1H-imidazol-1-yl)benzene sulfonamide]",Ki,[1],4.9 µM
same,IC50,[2],0.72 µM
same,Selectivity Ratio hCA XII/ hCA IX,[2],7.00
same,Ki,[2],0.72 µM and 0.7 µM
same,IC50,[3],3.9 ± 0.4 µM
same,melting point,,214 to 216 °C
same,IC50,[4],3.5 µM
same,GI50,"[4]; mean of four cell lines, read-out: mean GI50 against the four cell lines",3.5 µM
same,Ki,[5],> 100 µM
same,Ki,[6],> 100 µM
same,IC50,[7],3.8 ± 0.3 µM
same,IC50,[8],3.1 ± 0.4 µM
same,IC50,[9],3.1 ± 0.6 µM
same,viability at 96 h,[10],87%
"COc1ccccc1-c1nc(-c2ccccc2)c(-c2ccccc2)n1-c1ccc(S(N)(=O)=O)cc1 [Compound 5g, 4-(2-(2-Methoxyphenyl)-4,5-diphenyl-1H-imidazol-1-yl)benzene sulfonamide]",Ki,[1],3.7 µM
same,IC50,[2],0.32 µM
same,Selectivity Ratio hCA XII/ hCA IX,[2],12.00
same,Ki,[2],0.32 µM and 0.3 µM
same,IC50,[3],2.1 ± 0.2 µM
same,IC50,[4],2.3 µM
same,GI50,[4]; [11],2.3 µM
same,Ki,[5],> 100 µM
same,Ki,[6]; [12],> 100 µM
same,IC50,[7],2.2 ± 0.4 µM
same,IC50,[8],2.4 ± 0.4 µM
same,IC50,[9],2.4 ± 0.5 µM
same,viability at 96 h,[10],90%
"NS(=O)(=O)c1ccc(-n2c(-c3ccccc3Br)nc(-c3ccccc3)c2-c2ccccc2)cc1 [Compound 5b, 4-(2-(2-Bromophenyl)-4,5-diphenyl-1H-imidazol-1-yl)benzene sulfonamide]",Ki,[1],4.6 µM
same,IC50,[2],0.36 µM
same,Selectivity Ratio hCA XII/ hCA IX,[2],11.50
same,Ki,[2],0.36 µM and 0.4 µM
same,IC50,[3],2.7 ± 0.4 µM
same,IC50,[4],2.8 µM
same,GI50,[4]; [11],2.8 µM
same,Ki,[5],> 100 µM
same,Ki,[6]; [12],> 100 µM
same,IC50,[7],2.5 ± 0.2 µM
same,IC50,[8],3.1 ± 0.1 µM
same,IC50,[9],2.8 ± 0.5 µM
same,viability at 96 h,[10],91%
"NS(=O)(=O)c1ccc(-n2c(-c3ccccc3[N+](=O)[O-])nc(-c3ccccc3)c2-c2ccccc2)cc1 [Compound 5j, 4-(2-(2-Nitrophenyl)-4,5-diphenyl-1H-imidazol-1-yl)benzene sulfonamide]",Ki,[1],6.2 µM
same,Selectivity Ratio hCA XII/ hCA IX,[2],5.60
same,Ki,[2],1.1 µM
same,IC50,[3],3.6 ± 0.2 µM
same,melting point,,280 to 282 °C
same,IC50,[4],4.4 µM
same,Ki,[5],> 100 µM
same,Ki,[6],> 100 µM
same,IC50,[7],4.6 ± 0.9 µM
same,IC50,[8],4.8 ± 0.4 µM
same,IC50,[9],4.6 ± 0.6 µM
same,viability at 96 h,[10],88%
"NS(=O)(=O)c1ccc(-n2c(-c3ccccc3O)nc(-c3ccccc3)c2-c2ccccc2)cc1 [Compound 5e, 4-(2-(2-Hydroxyphenyl)-4,5-diphenyl-1H-imidazol-1-yl)benzene sulfonamide]",Ki,[1],5.2 µM
same,Selectivity Ratio hCA XII/ hCA IX,[2],6.50
same,Ki,[2],0.84 µM and 0.8 µM
same,IC50,[3],3.6 ± 0.8 µM
same,IC50,[4],3.9 µM
same,Ki,[5],> 100 µM
same,Ki,[6],> 100 µM
same,IC50,[7],3.7 ± 0.5 µM
same,IC50,[8],3.9 ± 0.6 µM
same,IC50,[9],4.4 ± 0.7 µM
same,viability at 96 h,[10],86%
"NS(=O)(=O)c1ccc(-n2c(-c3cccs3)nc(-c3ccccc3)c2-c2ccccc2)cc1 [Compound 5n, 4-(4,5-Diphenyl-2-(thiophen-2-yl)-1H-imidazol-1-yl)benzene sulfonamide]",Ki,[1],6.4 µM
same,Selectivity Ratio hCA XII/ hCA IX,[2],5.00
same,Ki,[2],1.3 µM
same,IC50,[3],4.6 ± 0.6 µM
same,melting point,,290 to 292 °C
same,IC50,[4],4.7 µM
same,Ki,[5],> 100 µM
same,Ki,[6],> 100 µM
same,IC50,[7],4.8 ± 0.3 µM
same,IC50,[8],4.8 ± 0.2 µM
same,IC50,[9],4.7 ± 0.6 µM
same,viability at 96 h,[10],90%
